Test: mn = molality of the nth substance listed, in mol/kg
Details: 101 kPa, Liquid; for molar conductivity: Alternating current cell with electrodes; for mass density: Vibrating tube method

Cc1ccc(C(=O)[O-])c(O)c1.[Na+] [sodium 2-hydroxy-4-methylbenzoate] + O
Details	mass density, 298.15 K [kg/m3]	molar conductivity, 278.15 K [S·m2/mol]	molar conductivity, 283.15 K [S·m2/mol]	molar conductivity, 288.15 K [S·m2/mol]	molar conductivity, 293.15 K [S·m2/mol]	molar conductivity, 298.15 K [S·m2/mol]	molar conductivity, 303.15 K [S·m2/mol]	molar conductivity, 308.15 K [S·m2/mol]	molar conductivity, 313.15 K [S·m2/mol]
m1 = 0.0008766	–	0.004463	0.005159	0.005899	0.006679	0.007495	0.008345	0.009213	0.01012
m1 = 0.001205	–	0.004451	0.005145	0.00588	0.006648	0.007462	0.008308	0.009184	0.01008
m1 = 0.001572	–	0.004436	0.005122	0.005855	0.006629	0.007439	0.008283	0.009158	0.01005
m1 = 0.001976	–	0.004416	0.005105	0.005835	0.006608	0.007414	0.008258	0.009136	0.01003
m1 = 0.002453	–	0.004401	0.005087	0.005815	0.006584	0.007387	0.008225	0.009092	0.009964
m1 = 0.00301	–	0.004382	0.005065	0.00579	0.006555	0.007356	0.008178	0.009044	0.009933
m1 = 0.003696	–	0.004364	0.005044	0.005765	0.006518	0.007314	0.008146	0.009009	0.009892
m1 = 0.004538	–	0.004345	0.005022	0.005734	0.006493	0.007285	0.008112	0.008969	0.009844
m1 = 0.005464	997.441	0.004332	0.004993	0.005707	0.006462	0.007251	0.008073	0.008927	0.009798
m1 = 0.09872	1004.12	–	–	–	–	–	–	–	–
